Measured values taken from US8796268B2, “Heteroaryls and uses thereof” (Millennium Pharmaceuticals, Inc., priority 2010, dated 2014).

How the values were obtained:
Assay type in all cases: biochemical
Human PI3K beta = target: T1, Human PI3K beta (Homo sapiens, UniProt P42338); experiment: Human PI3K beta enzyme assay (HTRF); conditions: concentration not given, b1387 states 1.1 μM for PI3K α and β; for inhibition at 1.1 µM: read-out: p110 beta Percent Inhibition
T1 construct: His (N); host or cells: SF9 insect cells (baculovirus)
Summary of the method: (§1)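 Compounds were mixed with 25 uM ATP, then with 3.5 uM di-C8 PI(4,5)P2 and His-tagged PI3K isoform (β 5.25 nM, δ 0.75 nM, γ 5 nM) at pH 7.00. After 30 min at room temperature, EDTA stopped the reaction and PIP3 was measured by HTRF over 1 h.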

Human PI3K alpha = target: T2, Human PI3K alpha (Homo sapiens, UniProt P42336); experiment: Human PI3K alpha enzyme assay (HTRF); conditions: concentration not given, b1387 states 1.1 μM for PI3K α and β; for inhibition at 1.1 µM: read-out: p110 alpha Percent Inhibition
T2 construct: His (N); host or cells: SF9 insect cells (baculovirus)

Human PI3K gamma = target: T3, Human PI3K gamma (Homo sapiens, UniProt P48736); experiment: Human PI3K gamma enzyme assay (HTRF); conditions: concentration not given, b1389 states 1.0 μM for PI3K δ and γ; for inhibition at 1 µM: read-out: p110 gamma Percent Inhibition
T3 construct: His (N); host or cells: SF9 insect cells (baculovirus)
Summary of the method: as §1

Human PI3K delta = target: T4, Human PI3K delta (Homo sapiens, UniProt O00329); experiment: Human PI3K delta enzyme assay (HTRF); conditions: concentration not given, b1389 states 1.0 μM for PI3K δ and γ; for inhibition at 1 µM: read-out: p110 delta Percent Inhibition
T4 construct: His (N); host or cells: SF9 insect cells (baculovirus)
Summary of the method: as §1

T4 sequence (O00329 whole entry): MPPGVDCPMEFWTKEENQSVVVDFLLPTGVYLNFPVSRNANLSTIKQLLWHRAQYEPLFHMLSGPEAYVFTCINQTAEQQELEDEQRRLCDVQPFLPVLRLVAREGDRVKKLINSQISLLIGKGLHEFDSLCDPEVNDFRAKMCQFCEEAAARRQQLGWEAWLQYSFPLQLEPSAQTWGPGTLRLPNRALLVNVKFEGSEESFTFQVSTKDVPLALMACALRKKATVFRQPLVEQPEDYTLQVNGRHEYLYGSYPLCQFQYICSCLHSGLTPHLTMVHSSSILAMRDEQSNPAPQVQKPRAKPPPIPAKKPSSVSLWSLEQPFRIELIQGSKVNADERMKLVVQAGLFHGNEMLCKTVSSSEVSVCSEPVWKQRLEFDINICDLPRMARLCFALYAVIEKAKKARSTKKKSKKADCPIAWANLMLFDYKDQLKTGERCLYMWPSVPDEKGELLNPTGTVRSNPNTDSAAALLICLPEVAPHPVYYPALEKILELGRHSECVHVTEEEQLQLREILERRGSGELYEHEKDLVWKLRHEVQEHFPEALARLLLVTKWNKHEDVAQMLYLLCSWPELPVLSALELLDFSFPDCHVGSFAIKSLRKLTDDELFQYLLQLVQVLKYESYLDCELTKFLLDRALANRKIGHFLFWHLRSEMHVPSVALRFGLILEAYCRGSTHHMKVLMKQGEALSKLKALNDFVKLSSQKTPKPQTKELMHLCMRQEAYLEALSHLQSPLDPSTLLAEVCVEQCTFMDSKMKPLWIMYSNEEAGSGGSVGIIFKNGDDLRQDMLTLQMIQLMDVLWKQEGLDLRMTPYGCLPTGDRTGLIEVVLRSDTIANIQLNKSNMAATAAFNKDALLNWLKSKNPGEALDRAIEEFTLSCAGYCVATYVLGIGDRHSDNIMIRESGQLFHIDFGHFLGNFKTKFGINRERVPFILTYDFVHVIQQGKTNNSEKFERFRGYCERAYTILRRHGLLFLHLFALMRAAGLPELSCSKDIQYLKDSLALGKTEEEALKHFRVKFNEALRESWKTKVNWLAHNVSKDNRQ
T4 sequence (P27986 whole entry partner): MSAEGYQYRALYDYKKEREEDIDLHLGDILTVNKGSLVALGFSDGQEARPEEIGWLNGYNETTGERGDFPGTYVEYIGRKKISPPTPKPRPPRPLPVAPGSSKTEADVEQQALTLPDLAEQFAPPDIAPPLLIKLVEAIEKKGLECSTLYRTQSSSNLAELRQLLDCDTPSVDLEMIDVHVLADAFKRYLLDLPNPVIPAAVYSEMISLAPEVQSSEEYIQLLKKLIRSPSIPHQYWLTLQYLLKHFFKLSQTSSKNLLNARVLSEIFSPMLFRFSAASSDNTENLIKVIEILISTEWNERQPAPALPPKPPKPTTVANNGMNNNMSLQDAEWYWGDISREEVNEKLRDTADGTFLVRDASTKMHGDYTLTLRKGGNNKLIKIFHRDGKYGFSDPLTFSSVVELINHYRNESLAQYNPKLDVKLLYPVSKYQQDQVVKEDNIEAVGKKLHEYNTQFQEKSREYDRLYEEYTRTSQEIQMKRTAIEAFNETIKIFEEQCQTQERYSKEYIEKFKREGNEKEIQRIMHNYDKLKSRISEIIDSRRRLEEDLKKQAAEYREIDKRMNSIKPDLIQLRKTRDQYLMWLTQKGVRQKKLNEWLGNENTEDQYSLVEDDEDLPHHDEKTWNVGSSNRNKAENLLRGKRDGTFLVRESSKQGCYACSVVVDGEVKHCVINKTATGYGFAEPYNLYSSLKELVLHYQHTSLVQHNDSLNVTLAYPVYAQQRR
T1 sequence (P42338 whole entry): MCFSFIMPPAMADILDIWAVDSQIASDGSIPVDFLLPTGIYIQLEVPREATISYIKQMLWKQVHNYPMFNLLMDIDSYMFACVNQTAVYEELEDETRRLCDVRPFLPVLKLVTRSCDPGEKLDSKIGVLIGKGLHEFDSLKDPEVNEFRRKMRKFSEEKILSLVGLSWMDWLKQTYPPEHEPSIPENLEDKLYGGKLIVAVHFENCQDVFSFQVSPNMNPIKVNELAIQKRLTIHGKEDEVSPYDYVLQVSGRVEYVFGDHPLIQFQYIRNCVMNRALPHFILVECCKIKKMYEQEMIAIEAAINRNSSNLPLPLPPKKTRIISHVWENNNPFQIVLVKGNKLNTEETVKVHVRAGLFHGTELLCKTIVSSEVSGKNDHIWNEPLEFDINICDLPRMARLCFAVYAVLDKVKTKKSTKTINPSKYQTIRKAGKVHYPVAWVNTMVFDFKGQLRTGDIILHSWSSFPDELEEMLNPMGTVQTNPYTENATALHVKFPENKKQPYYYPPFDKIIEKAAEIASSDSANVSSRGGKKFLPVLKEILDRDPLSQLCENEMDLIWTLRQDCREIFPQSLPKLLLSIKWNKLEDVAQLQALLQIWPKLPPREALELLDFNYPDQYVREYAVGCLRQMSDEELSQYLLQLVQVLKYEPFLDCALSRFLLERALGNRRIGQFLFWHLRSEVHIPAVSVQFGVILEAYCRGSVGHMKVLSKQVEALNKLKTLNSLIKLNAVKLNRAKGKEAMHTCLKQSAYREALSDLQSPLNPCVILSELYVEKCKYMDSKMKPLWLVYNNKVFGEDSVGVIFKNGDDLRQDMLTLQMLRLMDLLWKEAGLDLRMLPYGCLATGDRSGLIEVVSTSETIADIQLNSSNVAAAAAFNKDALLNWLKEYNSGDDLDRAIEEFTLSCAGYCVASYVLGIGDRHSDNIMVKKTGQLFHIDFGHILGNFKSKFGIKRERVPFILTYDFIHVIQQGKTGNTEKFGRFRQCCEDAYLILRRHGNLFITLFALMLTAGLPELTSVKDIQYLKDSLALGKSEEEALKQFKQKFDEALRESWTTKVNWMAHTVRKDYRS
T1 sequence (P27986 whole entry partner): as the sequence (P27986 whole entry partner) above
T3 sequence (P48736 whole entry): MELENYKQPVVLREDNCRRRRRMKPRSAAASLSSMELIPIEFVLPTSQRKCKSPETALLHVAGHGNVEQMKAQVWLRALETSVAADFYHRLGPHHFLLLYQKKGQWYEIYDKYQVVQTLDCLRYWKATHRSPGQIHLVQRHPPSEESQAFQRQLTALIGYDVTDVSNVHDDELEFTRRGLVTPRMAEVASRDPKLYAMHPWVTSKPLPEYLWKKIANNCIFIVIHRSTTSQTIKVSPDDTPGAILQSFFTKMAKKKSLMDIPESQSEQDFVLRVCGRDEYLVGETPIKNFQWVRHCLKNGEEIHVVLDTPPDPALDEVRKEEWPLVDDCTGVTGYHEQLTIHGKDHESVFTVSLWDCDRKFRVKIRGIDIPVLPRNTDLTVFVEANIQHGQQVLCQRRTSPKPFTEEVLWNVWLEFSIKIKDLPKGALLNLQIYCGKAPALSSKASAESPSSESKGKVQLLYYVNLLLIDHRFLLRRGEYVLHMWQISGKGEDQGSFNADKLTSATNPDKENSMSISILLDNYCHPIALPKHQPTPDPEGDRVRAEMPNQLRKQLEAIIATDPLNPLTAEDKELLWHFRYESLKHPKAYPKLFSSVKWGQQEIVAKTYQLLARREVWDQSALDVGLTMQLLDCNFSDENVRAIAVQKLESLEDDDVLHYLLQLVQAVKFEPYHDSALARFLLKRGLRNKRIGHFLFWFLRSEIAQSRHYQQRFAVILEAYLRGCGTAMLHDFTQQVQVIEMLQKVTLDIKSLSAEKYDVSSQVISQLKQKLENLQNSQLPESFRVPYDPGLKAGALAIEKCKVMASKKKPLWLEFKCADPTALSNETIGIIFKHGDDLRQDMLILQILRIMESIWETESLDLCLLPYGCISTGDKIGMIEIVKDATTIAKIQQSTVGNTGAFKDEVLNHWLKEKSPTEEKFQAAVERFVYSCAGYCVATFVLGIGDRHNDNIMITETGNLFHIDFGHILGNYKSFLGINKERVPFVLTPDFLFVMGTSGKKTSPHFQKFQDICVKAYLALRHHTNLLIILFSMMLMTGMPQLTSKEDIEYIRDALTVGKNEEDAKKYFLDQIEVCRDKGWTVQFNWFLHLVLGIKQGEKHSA
T2 sequence (P42336 whole entry): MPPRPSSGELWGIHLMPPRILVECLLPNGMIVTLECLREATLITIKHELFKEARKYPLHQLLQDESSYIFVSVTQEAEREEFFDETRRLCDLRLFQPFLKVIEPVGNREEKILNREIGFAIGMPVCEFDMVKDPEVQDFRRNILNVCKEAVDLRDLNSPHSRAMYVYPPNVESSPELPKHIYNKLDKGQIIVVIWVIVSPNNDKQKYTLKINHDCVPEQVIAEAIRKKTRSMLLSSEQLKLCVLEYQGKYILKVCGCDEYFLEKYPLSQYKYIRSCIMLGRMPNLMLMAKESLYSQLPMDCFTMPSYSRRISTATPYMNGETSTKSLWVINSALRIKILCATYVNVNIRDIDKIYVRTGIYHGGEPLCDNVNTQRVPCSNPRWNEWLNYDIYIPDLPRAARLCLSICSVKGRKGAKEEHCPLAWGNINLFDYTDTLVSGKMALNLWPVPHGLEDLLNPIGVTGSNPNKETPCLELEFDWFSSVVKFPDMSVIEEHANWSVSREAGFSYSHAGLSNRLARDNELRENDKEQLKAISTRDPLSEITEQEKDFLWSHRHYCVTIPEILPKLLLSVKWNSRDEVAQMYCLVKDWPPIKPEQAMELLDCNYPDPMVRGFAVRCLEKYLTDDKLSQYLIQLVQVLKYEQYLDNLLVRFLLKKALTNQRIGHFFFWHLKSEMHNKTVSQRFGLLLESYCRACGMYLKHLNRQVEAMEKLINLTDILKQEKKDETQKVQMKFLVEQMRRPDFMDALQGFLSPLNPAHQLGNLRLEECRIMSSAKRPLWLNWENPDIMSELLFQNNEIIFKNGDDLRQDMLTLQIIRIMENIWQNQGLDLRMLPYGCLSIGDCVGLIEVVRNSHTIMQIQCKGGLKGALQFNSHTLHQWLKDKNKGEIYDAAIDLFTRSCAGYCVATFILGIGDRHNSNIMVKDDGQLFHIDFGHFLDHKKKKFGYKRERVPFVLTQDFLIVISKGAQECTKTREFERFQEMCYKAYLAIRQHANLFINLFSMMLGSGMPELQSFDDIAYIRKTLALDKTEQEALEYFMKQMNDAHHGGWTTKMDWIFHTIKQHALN
T2 sequence (P27986 whole entry partner): as the sequence (P27986 whole entry partner) above

| Structure (SMILES) | inhibition at 1.1 µM (Human PI3K beta) [%] | inhibition at 1.1 µM (Human PI3K alpha) [%] | inhibition at 1 µM (Human PI3K gamma) [%] | inhibition at 1 µM (Human PI3K delta) [%] | p110 beta Percent Inhibition (Human PI3K beta) [%] | p110 alpha Percent Inhibition (Human PI3K alpha) [%] | p110 gamma Percent Inhibition (Human PI3K gamma) [%] | p110 delta Percent Inhibition (Human PI3K delta) [%] |
| --- | --- | --- | --- | --- | --- | --- | --- | --- |
| COc1cnc(Cl)cc1-c1cc(C(O)c2ccc(Cl)cc2)c(-c2nnc[nH]2)s1 (stereo not drawn) [Compound 197] | 23 | 15 | 4 | 19 | – | – | – | – |
| N#Cc1c(-c2ccnnc2)sc(-c2nnc[nH]2)c1C(O)c1ccc2ccccc2c1 (stereo not drawn) [Compound 198] | 108 | 18 | 35 | 70 | – | – | – | – |
| OC(c1ccc(F)c(F)c1)c1cc(-c2ccncc2)sc1-c1nnc[nH]1 (stereo not drawn) [Compound 199] | 64 | 21 | 16 | 42 | – | – | – | – |
| CC(=O)Nc1cc(-c2cc(C(c3ccc(Cl)cc3)N3CC(N)C3)c(-c3nnc[nH]3)s2)ccn1 (stereo not drawn) [Compound 200] | 118 | 101 | 60 | 111 | – | – | – | – |
| CC(=O)Nc1cc(-c2cc(C(c3ccc(Cl)cc3)N3CC(O)C3)c(-c3nnc[nH]3)s2)ccn1 (stereo not drawn) [Compound 201] | 105 | 74 | 37 | 110 | – | – | – | – |
| COc1ccc(C(O)c2cc(-c3ccncc3)sc2-c2nnc[nH]2)cc1C (stereo not drawn) [Compound 202] | 80 | 12 | 8 | 54 | – | – | – | – |
| OC(c1cc(-c2ccncc2)sc1-c1nnc[nH]1)c1c(F)ccc2ccccc12 (stereo not drawn) [Compound 203] | – | – | – | – | 88 | 10 | 16 | 67 |
| O=C(O)c1sc(-c2ccncc2)cc1C(O)c1ccc2ccccc2c1 (stereo not drawn) [Compound 205, 3-[hydroxy(2-naphthyl)methyl]-5-pyridin-4-ylthiophene-2-carboxylic acid] | 114 | 42 | 64 | 83 | – | – | – | – |
| CC(=O)Nc1cc(-c2cc(C(c3ccc(Cl)cc3)n3cccn3)c(-c3nnc[nH]3)s2)ccn1 (stereo not drawn) [Compound 206] | 96 | 90 | 11 | 106 | – | – | – | – |
| OC(c1ccc(-c2ccncc2)cc1)c1cc(-c2ccncc2)sc1-c1nnc[nH]1 (stereo not drawn) [Compound 207] | 83 | 27 | 9 | 51 | – | – | – | – |
| OC(c1ccc2ccccc2c1)c1cc(-c2ccncc2)sc1-c1nnc[nH]1 (stereo not drawn) [Compound 208] | – | – | – | – | 108 | 42 | 47 | 107 |
| CN[C@@H]1CCN(C(c2ccc(Cl)cc2)c2cc(-c3ccnc(NC(C)=O)c3)sc2-c2nnc[nH]2)C1 (stereo partly drawn) [Compound 209] | 107 | 92 | 34 | 108 | – | – | – | – |
| O=C(O)c1sc(-c2ccncc2)cc1Cc1ccc2ccccc2c1 [Compound 210, 3-(2-naphthylmethyl)-5-pyridin-4-ylthiophene-2-carboxylic acid] | 110 | 52 | 68 | 92 | – | – | – | – |
| CC(=O)Nc1cc(-c2cc(C(N=[N+]=[N-])c3ccc(Cl)cc3)c(-c3nnc[nH]3)s2)ccn1 (stereo not drawn) [Compound 211] | 111 | 111 | 13 | 106 | – | – | – | – |
| CC(=O)Nc1cc(-c2cc(C(c3ccc(Cl)cc3)N3CC[C@@H](O)C3)c(-c3nnc[nH]3)s2)ccn1 (stereo partly drawn) [Compound 212] | 109 | 87 | 38 | 112 | – | – | – | – |
| CC(=O)Nc1cc(-c2nc(Cc3ccc4ccccc4c3)c(-c3nnc[nH]3)s2)ccn1 [Compound 213] | 80 | 57 | 35 | 109 | – | – | – | – |
| OC(c1ccc(-c2cccnc2)cc1)c1cc(-c2ccncc2)sc1-c1nnc[nH]1 (stereo not drawn) [Compound 214] | 84 | 46 | 14 | 46 | – | – | – | – |
| OC(c1ccc2c(c1)OCCO2)c1cc(-c2ccncc2)sc1-c1nnc[nH]1 (stereo not drawn) [Compound 215] | 85 | 29 | 8 | 51 | – | – | – | – |
| CC(=O)Nc1cc(-c2cc(C(c3ccc(Cl)cc3)N3CC(F)(F)C3)c(-c3nnc[nH]3)s2)ccn1 (stereo not drawn) [Compound 216] | 91 | 64 | 11 | 99 | – | – | – | – |
| OC(c1ccccc1Cl)c1cc(-c2ccncc2)sc1-c1nnc[nH]1 (stereo not drawn) [Compound 217] | 74 | 30 | 24 | 60 | – | – | – | – |

| Structure (SMILES) | inhibition at 1.1 µM (Human PI3K beta) [%] | inhibition at 1.1 µM (Human PI3K alpha) [%] | inhibition at 1 µM (Human PI3K gamma) [%] | inhibition at 1 µM (Human PI3K delta) [%] | p110 beta Percent Inhibition (Human PI3K beta) [%] | p110 alpha Percent Inhibition (Human PI3K alpha) [%] | p110 gamma Percent Inhibition (Human PI3K gamma) [%] | p110 delta Percent Inhibition (Human PI3K delta) [%] |
| --- | --- | --- | --- | --- | --- | --- | --- | --- |
| CC(=O)Nc1cc(-c2sc(-c3nnc[nH]3)c(C(c3ccc(Cl)cc3)N3CCNCC3)c2C#N)ccn1 (stereo not drawn) [Compound 218] | 102 | 61 | 14 | 97 | – | – | – | – |
| OC(c1ccc(Cl)cc1Cl)c1cc(-c2ccncc2)sc1-c1nnc[nH]1 (stereo not drawn) [Compound 219] | 101 | 32 | 31 | 107 | – | – | – | – |
| COC(c1ccc(Cl)cc1)c1cc(-c2ccnc(NC(C)=O)c2)sc1-c1nnc[nH]1 (stereo not drawn) [Compound 220] | 91 | 92 | 9 | 99 | – | – | – | – |
| CC(=O)Nc1cc(-c2cc(C(c3ccc(Cl)cc3)N3CCC(F)(F)CC3)c(-c3nnc[nH]3)s2)ccn1 (stereo not drawn) [Compound 221] | 94 | 62 | 8 | 100 | – | – | – | – |
| CC(=O)Nc1cc(-c2cc(C(c3ccc(Cl)cc3)N(C)C3CCNCC3)c(-c3nnc[nH]3)s2)ccn1 (stereo not drawn) [Compound 222] | 98 | 68 | 9 | 102 | – | – | – | – |
| CC(=O)Nc1cc(-c2cc(C(c3ccc(Cl)cc3)N3CC[C@@H](CO)C3)c(-c3nc[nH]n3)s2)ccn1 (stereo partly drawn) [Compound 223] | 94 | 67 | 21 | 102 | – | – | – | – |
| CC(=O)Nc1cc(-c2cc(C(c3ccc(Cl)cc3)N3CCN(S(C)(=O)=O)CC3)c(-c3nnc[nH]3)s2)ccn1 (stereo not drawn) [Compound 224] | 92 | 70 | 15 | 103 | – | – | – | – |
| CC(=O)Nc1cc(-c2cc(/C(=C/CCN(C)C)c3ccc(Cl)cc3)c(-c3nnc[nH]3)s2)ccn1 [Compound 225] | 52 | 51 | 51 | 84 | – | – | – | – |
| CC(=O)Nc1cc(-c2cc(C(NCCO)c3ccc(Cl)cc3)c(-c3nnc[nH]3)s2)ccn1 (stereo not drawn) [Compound 226] | 98 | 46 | 14 | 93 | – | – | – | – |
| N#Cc1c(-c2ccnnc2)sc(-c2nnc[nH]2)c1C(c1ccc(Cl)cc1)N1CCNCC1 (stereo not drawn) [Compound 227] | 76 | -2 | 3 | 24 | – | – | – | – |
| OC(c1cc(-c2ccncc2)sc1-c1nnc[nH]1)c1cccc2ccccc12 (stereo not drawn) [Compound 228] | 94 | 24 | 11 | 57 | – | – | – | – |
| CC(=O)Nc1cc(-c2nc(C(c3ccc(Cl)cc3)N3CCNCC3)c(-c3nnc[nH]3)s2)ccn1 (stereo not drawn) [Compound 229] | 105 | 62 | 16 | 106 | – | – | – | – |
| CC(=O)Nc1cc(-c2cc(C(c3ccc(Cl)cc3)N3CCCC3)c(-c3nnc[nH]3)s2)ccn1 (stereo not drawn) [Compound 230] | 93 | 57 | 29 | 102 | – | – | – | – |
| OC(c1ccc(Br)cc1)c1cc(-c2ccncc2)sc1-c1nnc[nH]1 (stereo not drawn) [Compound 231] | 104 | 34 | 47 | 77 | – | – | – | – |
| OC(c1ccc(Cl)c(F)c1)c1cc(-c2ccncc2)sc1-c1nnc[nH]1 (stereo not drawn) [Compound 232] | 105 | 38 | 26 | 67 | – | – | – | – |
| CC(=O)Nc1cc(-c2cc(C(NCC3CCNC3)c3ccc(Cl)cc3)c(-c3nnc[nH]3)s2)ccn1 (stereo not drawn) [Compound 234] | 100 | 60 | 10 | 104 | – | – | – | – |
| OC(c1cc(-c2ccncc2)sc1-c1nnc[nH]1)c1cccc(F)c1F (stereo not drawn) [Compound 235] | 101 | 65 | 17 | 66 | – | – | – | – |
| OC(c1ccc(-c2cncnc2)cc1)c1cc(-c2ccncc2)sc1-c1nnc[nH]1 (stereo not drawn) [Compound 236] | 53 | 11 | 10 | 48 | – | – | – | – |
| CC(=O)Nc1cc(-c2nc(C(O)c3ccc(Cl)cc3)c(-c3nnc[nH]3)s2)ccn1 (stereo not drawn) [Compound 238] | 88 | 72 | 11 | 96 | – | – | – | – |
